{
  "source": "patent US20160213499A1",
  "about": "“BIODEGRADABLE ENDOPROSTHESES AND METHODS FOR THEIR FABRICATION” (Elixir Medical Corporation, priority 2015, published 2016)",
  "experiment": "Pharmacokinetic release profile of novolimus from a stent (FIG. 35)",
  "format": "in vivo",
  "data": [
    {"smiles": "CO[C@@H]1C[C@H](C[C@@H](C)[C@@H]2CC(=O)[C@H](C)/C=C(\\C)[C@@H](O)[C@@H](OC)C(=O)[C@H](C)C[C@H](C)/C=C/C=C/C=C(\\C)[C@@H](O)C[C@@H]3CC[C@@H](C)[C@@](O)(O3)C(=O)C(=O)N3CCCC[C@H]3C(=O)O2)CC[C@H]1O", "note": "[novolimus, 16-O-desmethyl-rapamycin]", "values": [
      {"measurement": "tissue drug concentration", "setting": "at 90 days", "value": 0.5, "unit": "ng/mg"},
      {"measurement": "drug released", "setting": "in one month", "value": "over 85%"}
    ]}
  ]
}
